Key:
clinical = conditions: human, in vivo
From the text: The safety margin decreases as the dose increases.

IRAK4 = molecular target: T1, IRAK4 (Rattus norvegicus, UniProt A0A8I6G1H3); experiment: In vitro IRAK4 degradation, rat splenocytes; format: cell-based; conditions: read-out: DC50 (IRAK4 degradation)
T1 construct: endogenous in cells; host or cells: rat splenocytes

[1] = tested on: imiquimod psoriasis model (TLR 7/8-dependent); experiment: Imiquimod psoriasis model; format: in vivo, murine
From the text: (§1) Overall, efficacy was associated with achieving at least 80% or more IRAK4 knockdown in associated tissues in the model systems.

Phase 1 MAD safety = format: in vivo, human; conditions: multiple daily doses over 14 days up to 200 mg (MAD 4)
From the text: Steady-state plasma levels were reached by Day 7, with approximately 3-fold increase in exposure on Day 14 compared to Day 1.

[2] = tested on: LPS (TLR4)-stimulated cytokine induction in whole blood; experiment: Phase 1 SAD ex vivo LPS-stimulated cytokine induction in whole blood; set-up: species or system human; conditions: 24-48 hours, Cohort 7
[3] = Phase 1 Part C Compound A skin concentration; format: in vivo, human; conditions: FIG. 20, Day 28
[4] = Distribution studies in rats; format: in vivo
From the text: In in vivo pharmacokinetic (PK) studies conducted in rats, dogs, and monkeys.

[5] = tested on: MSU-crystal induced (TLR 2/4-dependent) inflammation; experiment: Mouse air pouch model of MSU-crystal induced inflammation; format: in vivo
From the text: as §1

[6] = tested on: R848 (TLR7)-stimulated cytokine induction in whole blood; experiment: Phase 1 SAD ex vivo R848-stimulated cytokine induction in whole blood; set-up: species or system human
[7] = 30 to 100 mg/kg twice daily, 3 days
[8] = R848, whole blood, 24-48 hours, Cohort 7

T1 sequence (A0A8I6G1H3 1-461): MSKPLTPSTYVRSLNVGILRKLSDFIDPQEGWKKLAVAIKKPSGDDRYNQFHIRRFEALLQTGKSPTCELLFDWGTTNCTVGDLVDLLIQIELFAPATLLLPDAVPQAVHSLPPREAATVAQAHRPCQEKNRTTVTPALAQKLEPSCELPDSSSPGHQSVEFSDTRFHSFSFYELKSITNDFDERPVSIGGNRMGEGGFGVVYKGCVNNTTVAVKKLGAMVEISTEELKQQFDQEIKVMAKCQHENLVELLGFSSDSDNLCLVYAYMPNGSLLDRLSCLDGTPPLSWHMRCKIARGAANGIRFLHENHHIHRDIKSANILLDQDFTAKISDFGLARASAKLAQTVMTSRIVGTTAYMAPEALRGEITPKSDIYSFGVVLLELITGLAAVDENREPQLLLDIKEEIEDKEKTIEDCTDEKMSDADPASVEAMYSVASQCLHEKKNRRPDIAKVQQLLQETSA

Compound: Cn1c(=O)n([C@@H]2CCC(=O)NC2=O)c2cccc(C#CCOC3CCN(C[C@H]4CC[C@H](n5cc(NC(=O)c6cnn7ccc(N8C[C@H]9C[C@@H]8CO9)nc67)c(C(F)F)n5)CC4)CC3)c21 [Compound A, 5-((1R,4R)-2-oxa-5-azabicyclo[2.2.1]heptan-5-yl)-N-(3-(difluoromethyl)-1-((1r,4R)-4-((4-((3-(1-(2,6-dioxopiperidin-3-yl)-3-methyl-2-oxo-2,3-dihydro-1H-benzo[d]imidazol-4-yl)prop-2-yn-1-yl)oxy)piperidin-1-yl)methyl)cyclohexyl)-1H-pyrazol-4-yl)pyrazolo[1,5-a]pyrimidine-3-carboxamide]
- half-life (clinical): 25 to 40 h
- inter-subject variability in exposure (clinical): low to moderate
- AUC (clinical; po, 25 mg): 112 ng·h/mL
- Cmax (clinical; po, 25 mg): 3.49 ng/mL
- Tmax (clinical; po, 25 mg): 8 h
- half-life (clinical; po, 25 mg): 25.2 h
- AUC (clinical; po, 75 mg): 288 ng·h/mL
- Cmax (clinical; po, 75 mg): 9.08 ng/mL
- Tmax (clinical; po, 75 mg): 7 h
- half-life (clinical; po, 75 mg): 28.7 h
- AUC (clinical; po, 150 mg): 483 ng·h/mL
- Cmax (clinical; po, 150 mg): 12.7 ng/mL
- Tmax (clinical; po, 150 mg): 9 h
- half-life (clinical; po, 150 mg): 31.6 h
- AUC (clinical; po, 300 mg): 848 ng·h/mL
- Cmax (clinical; po, 300 mg): 17.4 ng/mL
- Tmax (clinical; po, 300 mg): 8 h
- half-life (clinical; po, 300 mg): 26.6 h
- AUC (clinical; po, 600 mg): 1520 ng·h/mL
- Cmax (clinical; po, 600 mg): 24.2 ng/mL
- Tmax (clinical; po, 600 mg): 12 h
- half-life (clinical; po, 600 mg): 30.1 h
- AUC (clinical; po, 1000 mg): 1950 ng·h/mL
- Cmax (clinical; po, 1000 mg): 27.8 ng/mL
- Tmax (clinical; po, 1000 mg): 20 h
- half-life (clinical; po, 1000 mg): 40.2 h
- AUC (clinical; po, 1600 mg): 1920 ng·h/mL
- Cmax (clinical; po, 1600 mg): 27.3 ng/mL
- Tmax (clinical; po, 1600 mg): 24 h
- half-life (clinical; po, 1600 mg): 36.4 h
- DC50 (IRAK4): < 10 nM
- degradation of IRAK4 in the spleen and skin ([1]; mouse, in vivo): dose-dependent degradation
- skin thickness ([1]; mouse, in vivo): reduction in skin thickness
- IL-1β in the skin ([1]; p<0.0001): significant reduction
- IL-6 in the skin ([1]; p<0.05, 300 mg/kg only): significant reduction
- safety and tolerability (Phase 1 MAD safety): safe and well-tolerated
- Mean Maximum Percent Change from Baseline in ex vivo IFNγ induction [2]: −42%^
- Mean Maximum Percent Change from Baseline in ex vivo IL1β induction [2]: −68%^1
- Mean Maximum Percent Change from Baseline in ex vivo IL6 induction [2]: −62%^1
- Mean Maximum Percent Change from Baseline in ex vivo IL8 induction [2]: −81%^1
- Mean Maximum Percent Change from Baseline in ex vivo IL10 induction [2]: −83%^1
- Mean Maximum Percent Change from Baseline in ex vivo IL12 induction [2]: −35%^2
- Mean Maximum Percent Change from Baseline in ex vivo IL17 induction [2]: −43%^2
- Mean Maximum Percent Change from Baseline in ex vivo TNFα induction [2]: −42%^2
- skin concentration of Compound A in HS or AD patient compared to healthy volunteer [3]: about 2 fold
- penetration into the central nervous system (CNS) [4]: limited penetration
- tissue distribution [4]: extensively distributed into tissues
- IRAK4 levels in the spleen [5, 7]: significantly reduced
- inflammatory exudate, including neutrophils and IL-1β [5, 7]: significantly reduced
- IRAK4 knockdown in associated tissues associated with efficacy ([5]; murine inflammation model systems overall): at least 80%
- Mean Maximum Percent Change from Baseline in ex vivo IFNγ induction [6, 8]: −97%^2
- Mean Maximum Percent Change from Baseline in ex vivo IL1β induction [6, 8]: −92%^1
- Mean Maximum Percent Change from Baseline in ex vivo IL6 induction [6, 8]: −88%^1
- Mean Maximum Percent Change from Baseline in ex vivo IL8 induction [6, 8]: −54%^
- Mean Maximum Percent Change from Baseline in ex vivo IL10 induction [6, 8]: −89%^1
- Mean Maximum Percent Change from Baseline in ex vivo IL12 induction [6, 8]: −93%^1
- Mean Maximum Percent Change from Baseline in ex vivo IL17 induction [6, 8]: −79%^1
- Mean Maximum Percent Change from Baseline in ex vivo TNFα induction [6, 8]: −88%^2
- mean maximum ex vivo cytokine inhibition ([6]; SAD, R848- or LPS-mediated induction, whole blood, 24-48 h post-dose): up to 97%
- inhibition of R848 or LPS induction of 8 different pro-inflammatory cytokines ([6]; SAD, whole blood, maxima across cytokines): 79-97%
